Experimental data from US8394641B2, “Method of hydrolyzing an enzymatic substrate” (Advanced Liquid Logic Inc., priority 2009, dated 2013).

How the values were obtained:
[1] = target: T1, α-galactosidase (Homo sapiens, UniProt P06280); assay: Fabry assay on bench, substrate hydrolysis with cyclodextrins, QC DBS extracts; assay type: biochemical; conditions: for effect on hydrolysis of the 4-MU substrate in the Fabry assay: 10, 30, 100 mM tested, effect at 10 mM
T1 construct: DBS extracts were prepared from quality control (QC) dried blood spot samples; tissue CDC, Atlanta Ga; host or cells: dried blood spot extracts (pooled cord blood / leukoreduced red cells plus serum)
T1 sequence (P06280 32-429): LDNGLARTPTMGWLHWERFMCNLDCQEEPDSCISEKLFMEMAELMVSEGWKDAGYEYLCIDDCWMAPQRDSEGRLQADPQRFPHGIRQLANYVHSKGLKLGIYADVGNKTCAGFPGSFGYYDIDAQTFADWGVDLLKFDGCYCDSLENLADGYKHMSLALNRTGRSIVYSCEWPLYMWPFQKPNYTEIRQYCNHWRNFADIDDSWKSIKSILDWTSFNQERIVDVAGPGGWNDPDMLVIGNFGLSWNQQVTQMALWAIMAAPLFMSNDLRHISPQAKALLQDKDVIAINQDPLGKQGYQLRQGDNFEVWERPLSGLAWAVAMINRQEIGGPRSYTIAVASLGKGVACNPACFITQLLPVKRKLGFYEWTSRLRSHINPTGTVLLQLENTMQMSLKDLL
Protocol: (§1) To evaluate the efficacy of cyclodextrins in enhancing the hydrolysis of enzymatic substrates (4-MU substrates) used in NBS assays, DBS extracts were prepared from quality control (QC) dried blood spot samples (i.e., base pool (BP), low (L), medium (M) and high (H) activity samples). The QC samples were obtained from CDC, Atlanta Ga. The base pool (BP) QC sample was prepared from a pool of leukoreduced human red blood cells that was adjusted with serum to a hematocrit of 50%. The High (H) activity QC sample was prepared from pooled cord blood that was adjusted with serum to a hematocrit of 50%. The medium (M) activity QC sample was prepared by using 50% base pool (BP) and 50% high (H) activity sample. The low (L) activity QC sample was prepared by using 95% base pool (BP) and 5% high (H) activity sample. The BP sample is used as a control for hydrolysis non-specific to white blood cell lysosomal enzymes. The DBS extracts were analyzed using on-bench assay protocols for Fabry, Gaucher, Krabbe, and Pompe diseases. For each assay, on-chip reagent formulations were scaled up to bench volumes. Hydroxypropyl-β-cyclodextrin or methyl-β-cyclodextrin reagent stocks (300 mM) were prepared in appropriate assay buffers. For each reaction, 10 μL of the appropriate substrate was mixed with 10 μL of DBS extract. After an incubation period (20 hrs at 37° C.), 50 μL of stop buffer (0.2 M NaCO3, pH 10.1) was added to the reaction. Fluorescence was read at 360/460 nm at a gain of 75. For each assay, QC samples (BP, L, M and H) were analyzed in duplicate.
FIGS. 20A and 20B show bar graphs 2000 and 2050 of the effect of hydroxypropyl-β-cyclodextrin and methyl-β-cyclodextrin, respectively, on substrate hydrolysis in a Fabry assay. The 4-MU substrate in the Fabry assay was β-D-galactopyranoside. The concentrations of β-cyclodextrins in the reaction mixture (substrate+DBS extract) were 10 mM, 30 mM and 100 mM.
To further evaluate the efficacy of lower concentrations of cyclodextrins in enhancing the hydrolysis of 4-MU substrates, Fabry and Gaucher assays were repeated using cyclodextrins concentrations ranging from 1 mM to 25 mM. FIGS. 22A and 22B show bar graphs 2200 and 2250, respectively, of the effect of lower concentrations of hydroxypropyl-β-cyclodextrin and methyl-β-cyclodextrin, respectively, on substrate hydrolysis in a Fabry assay. The 4-MU substrate in the Fabry assay was β-D-galactopyranoside. The concentrations of β-cyclodextrins in the reaction mixture (substrate+DBS extract) were 1, 5, 10, 15, 20, and 25 mM. […] The preferred concentration of methyl-β-cyclodextrin is from about 1 mM to about 20 mM, or from about 5 mM to about 15 mM, or from about 7 mM to about 13 mM, or from about 9 mM to about 11 mM, or from about 9.5 mM to about 11.5 mM.

[2] = target: T2, α-glucosidase (Homo sapiens, UniProt P10253); assay: Pompe assay on bench, substrate hydrolysis with cyclodextrins, QC DBS extracts; assay type: biochemical; conditions: data not shown
T2 construct: DBS extracts were prepared from quality control (QC) dried blood spot samples; tissue CDC, Atlanta Ga; host or cells: dried blood spot extracts (pooled cord blood / leukoreduced red cells plus serum)
Protocol: as §1, with “For each reaction, 10 μL of the appropriate substrate was mixed with 10 μL of DBS extract. After an incubation period (20 hrs at 37° C.), 50 μL of stop buffer (0.2 M NaCO3, pH 10.1) was added to the reaction.” left out, “duplicate. […]” for “duplicate.”

| effect on substrate hydrolysis in a Fabry assay, lower concentrations ([1]; 1, 5, 10, 15, 20, 25 mM) | effect on hydrolysis of the 4-MU substrate in the Fabry assay ([1]; 20 hrs at 37° C.) | effect on substrate hydrolysis in a Pompe assay [2] | increase of the QC-H signal in the Fabry assay ([1]; 10 mM, 20 hrs at 37° C.) [%] | Substance |
| --- | --- | --- | --- | --- |
| less effective | less effective | less effective | – | hydroxypropyl-β-cyclodextrin |
| – | increase the hydrolysis | less effective | 37 | methyl-β-cyclodextrin |
